{"source": "patent US10813968B2", "about": "“Method of treating a human suffering from post exercise muscle soreness” (Provexis Natural Products Limited, priority 2012, dated 2020)", "origin": "cited, not measured here", "conditions": "3 hours after supplementation supplying 200 μg folic acid"}
{"compound": "Nc1nc2ncc(CNc3ccc(C(=O)N[C@@H](CCC(=O)O)C(=O)O)cc3)nc2c(=O)[nH]1", "note": "[folic acid]", "values": [{"measurement": "typical plasma folate concentration", "result": 5, "unit": "ng/mL"}]}
